Values of other authors in patent US9884842B2, “Combretastatin analogs” (The Board of Trustees of the University of Arkansas, priority 2013, dated 2018).

Key:
Settings in all cases: background; cited from earlier work
tubulin [1] = test system: tubulin
[2] = test system: multidrug resistant (MDR) cancer cell lines
tubulin [3] = test system: tubulin; remark: listed apart in the source

Which results are given for COc1ccc(/C=C\c2cc(OC)c(OC)c(OC)c2)cc1O [combretastatin A-4]?
inhibition of tubulin polymerization (tubulin [1]): inhibit tubulin polymerization; activity against multidrug resistant (MDR) cancer cell lines [2]: active; inhibition of binding of radiolabeled colchicines to tubulin (tubulin [3]): competitively inhibit the binding of radiolabeled colchicines to tubulin
